According to patent publication US11679168B2, “Caspase-3-triggered molecular self-assembling PET probes and uses thereof” (The Board of Trustees of the Leland Stanford Junior …, priority 2018, dated 2023):

Key:
[1] = test system: H460 cells; experiment: Radiotracer uptake in H460 cells; type: cell-based, human
Procedure: (§1) Temporal changes in cell-associated radioactivity in drug-treated cells or vehicle cells were measured with [18F]-C-SNAT4. Data are means±SD (n=3 per group). *, P<0.05; **, P<0.01; ***, P<0.005; *****, P<0.0001.
FIG. 22 illustrates that a mixture strategy enhances [^18F]-C-SNAT4 uptake in radiation (a single dose at 10 Gy) treated cells and vehicle human non-small cell lung cancer H460 cells. 40 μCi of mixture tracer [^18F]/[^19F]-C-SNAT4 (at ratio of 1:80 or 1:200) or 40 μCi [^18F]-C-SNAT4 were incubated in cells for 1 hour at 24 h post-IR treatment and radioactivity of [^18F] was measured using γ-counter. Data are means±SD (n=3 each group). *, P<0.05; **, P<0.01; ***, P<0.001.
(§2) Radiotracer uptake in cells: H460 and H1299 cells (2×10^5) were plated in 6-well cell culture plates over night before [^18F]-C-SNAT4 uptake analysis. […] After 24 h treatment, fresh, prewarmed RPMI Medium 1640 containing 1.48 MBq (40 μCi) [^18F]-C-SNAT4 was added to individual wells (1 ml/well; 13.3 pmol). At post 10, 30, 60 min, medium was removed, cells were lifted by trypsinization, and washed three-times with cold PBS. Radioactivity contained in cell pellets was measured using a gamma counter, with counts normalized to total protein concentration as determined by cell digestion using RIPA buffer followed by protein quantitation by the Bradford method. The final radiotracer [^18F]-C-SNAT4 uptake concentration was expressed as μM of % uptake/mg protein. Results were normalized to a vehicle control (PBS for [^18F]-C-SNAT4 experiments at different time-points) which was washed.

[2] = Stability of [18F]-C-SNAT4 in human serum (HPLC); type: in vitro ADME; conditions: 37° C., over 2 h incubation
Procedure: FIG. 10 illustrates serum stability of [^18F]-C-SNAT4 in human serum. [^18F]-C-SNAT4 was incubated in serum at 37° C. and analyzed by HPLC.
(§3) At 24 h post treatment, mixture tracer of [^19F]-C-SNAT4 was injected with [^18F]-C-SNAT4 (mixture ratio at 1:200) through the tail vein for PET imaging (FIG. 24A-24C). For treated animal, tumor uptake of mixture tracer [^18F]/[^19F]-C-SNAT4 and [^18F]-C-SNAT4 were 2.9±0.3% ID/cc and 1.7±0.1% ID/cc, respectively at 85 min post injection. There was 1.7-fold increase of radioactivity in the mixture-treated mice. Overall, the uptake of [^18F]-C-SNAT4 was increased both in radiation and drug-treated tumors. In contrast, the tumor uptake of [^18F]/[^19F]-C-SNAT4 (ratio at 1:200) and [^18F]/[^19F]-C-SNAT4 (ratio at 1:80) in untreated tumor was 0.5±0.2% ID/cc and 0.3±0.2% ID/cc, respectively at 85 min after injection (FIG. 25A-25C), followed by a rapid signal decay back to baseline within a few minutes. There were no changes compared to the uptake of [^18F]-C-SNAT4 (0.4±0.1% ID/cc). […] The sample was centrifuged at 13,400 g for 10 min and […] of the resultant supernatant was diluted with […] of water and analyzed on HPLC. % intact tracer was calculated as %=(peak area for tracer/total peak area on the HPLC chromatogram)×100.

[3] = Blood half-life in healthy nude mice after intravenous injection; type: in vivo
Text: FIG. 21 illustrates blood half-life in healthy nude mice after intravenous injection of [^18F]-C-SNAT4 (n=4).

[4] = Stability of [18F]-C-SNAT4 in mouse serum (HPLC); type: in vitro ADME; conditions: 37° C., over 2 h incubation
Procedure: FIG. 1B illustrates the serum stability of [^18F]-C-SNAT4 in mouse serum. [^18F]-C-SNAT4 was incubated in serum at 37° C. and analyzed by HPLC.
as §3

[5] = test system: H1299 cells; experiment: Radiotracer uptake in H1299 cells; type: cell-based, human
Procedure: as §1, §2

- percentage of [18F]-C-SNAT4 remained [2]: 77.5%
- elimination from the blood ([3]; by 2 h after administration): nearly complete elimination
- peak blood concentration ([3]; healthy nude mice, after 5 min): 15.21±2.66 % ID/g
- blood life ([3]; healthy nude mice, i.v.): 0.4 ± 0.1 h
- blood half-life ([3]; healthy nude mice, i.v., n=4): 21.6 ± 6.6 min
- percentage of [18F]-C-SNAT4 remained [4]: 77.2%
Compound: CCSSCC(NC(=O)C(CC(=O)O)NC(=O)C(NC(=O)C(CCC(=O)O)NC(=O)C(CC(=O)O)NC(C)=O)C(C)C)C(=O)NCC(=O)NC(Cc1cn(CCOCCOCCOCC[18F])nn1)C(=O)NCc1ccc(C(=O)NCCCOc2cnc(C#N)nc2)cc1 (stereo not drawn) [[^18F]-C-SNAT4]
- uptake of high dose-treated cells relative to control cells ([1]; H460, 10 min post incubation): 5.8 fold
- uptake of low dose-treated cells relative to control cells ([1]; H460, 60 min post incubation): 2.4 fold
- cell uptake ([1]; IR-treated (10 Gy, 24 h) H460, hot tracer only, 1 h): 3.9±0.4 % uptake/mg protein
- cell uptake ([1]; cisplatin high dose (13.5 μM, 24 h) treated H460, 10 min post incubation): 2.3 % radioactivity/mg protein
- cell uptake ([1]; cisplatin low dose (4.5 μM, 24 h) treated H460, 10 min): 0.7±0.1 % uptake/mg protein
- cell uptake ([1]; cisplatin low dose (4.5 μM, 24 h) treated H460, 60 min): 1.45±0.11 % radioactivity/mg protein
- cell uptake ([1]; control H460 cells of high dose experiment, 10 min post incubation): 0.4±0.1 % uptake/mg protein
- cell uptake ([1]; non-treated H460, hot tracer only): 2.8±0.3 % uptake/mg protein
- cell uptake ([1]; untreated H460, 10 min): 0.5±0.1 % radioactivity/mg protein
- cell uptake ([1]; untreated H460, 60 min): 0.4 % uptake/mg protein
- difference in uptake, drug-treated versus untreated ([5]; H1299, high dose, 60 min): no difference
- cell uptake ([5]; cisplatin high dose (13.5 μM, 24 h) treated H1299, 30 min post incubation): 4.0±0.3 % radioactivity/mg protein
- cell uptake ([5]; cisplatin low dose (4.5 μM, 24 h) treated H1299, 60 min): 0.3±0.1 % uptake/mg protein
- cell uptake ([5]; control group H1299 (high dose experiment), 30 min post incubation): 2.5±0.6 % radioactivity/mg protein
- cell uptake ([5]; naïve H1299 (low dose experiment), 60 min): 0.2±0.1 % uptake/mg protein
